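Cells were grown in 96-well plates and exposed to each compound for 48 hours at five concentrations; endpoints were interpolated linearly between bracketing concentrations, or set to the highest concentration if not reached. The concentration for full growth arrest is given as TGI.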
How the values were obtained:
Assay in all cases: growth of human tumour cells (NCI), 48 h
SW-620 colon = tested on: SW-620 colon
NCI-H460 lung = tested on: NCI-H460 lung
HOP-92 NSCLC = tested on: HOP-92 NSCLC
A549 NSCLC = tested on: A549 NSCLC
HOP-62 NSCLC = tested on: HOP-62 NSCLC
RXF 393 renal = tested on: RXF 393 renal
NCI-H23 lung = tested on: NCI-H23 lung
ACHN renal = tested on: ACHN renal
LOX IMVI melanoma = tested on: LOX IMVI melanoma
EKVX NSCLC = tested on: EKVX NSCLC
COLO 205 colon = tested on: COLO 205 colon
OVCAR-4 ovarian = tested on: OVCAR-4 ovarian
CAKI-1 renal = tested on: CAKI-1 renal
SK-OV-3 ovarian = tested on: SK-OV-3 ovarian
KM12 colon = tested on: KM12 colon
786-0 renal = tested on: 786-0 renal
SR leukemia = tested on: SR leukemia
A498 renal = tested on: A498 renal
MOLT-4 leukemia = tested on: MOLT-4 leukemia
CCRF-CEM leukemia = tested on: CCRF-CEM leukemia
U251 CNS = tested on: U251 CNS
NCI-H226 lung = tested on: NCI-H226 lung
OVCAR-5 ovarian = tested on: OVCAR-5 ovarian
HL-60(TB) leukemia = tested on: HL-60(TB) leukemia
OVCAR-8 ovarian = tested on: OVCAR-8 ovarian
PC-3 prostate = tested on: PC-3 prostate
TK-10 renal = tested on: TK-10 renal
SF-268 CNS = tested on: SF-268 CNS
HCT-15 colon = tested on: HCT-15 colon
SN12C renal = tested on: SN12C renal
MDA-MB-231 breast = tested on: MDA-MB-231 breast
SNB-75 CNS = tested on: SNB-75 CNS
HCT-116 colon = tested on: HCT-116 colon
MCF7 breast = tested on: MCF7 breast
RPMI-8226 leukemia = tested on: RPMI-8226 leukemia
IGROV1 ovarian = tested on: IGROV1 ovarian
HCC-2998 colon = tested on: HCC-2998 colon
SF-295 CNS = tested on: SF-295 CNS
HT29 colon = tested on: HT29 colon
SF-539 CNS = tested on: SF-539 CNS
SK-MEL-28 melanoma = tested on: SK-MEL-28 melanoma
K-562 leukemia = tested on: K-562 leukemia
MDA-MB-435 = tested on: MDA-MB-435
MALME-3M melanoma = tested on: MALME-3M melanoma
SK-MEL-2 melanoma = tested on: SK-MEL-2 melanoma
HS 578T breast = tested on: HS 578T breast
UACC-62 melanoma = tested on: UACC-62 melanoma
NCI/ADR-RES ovarian = tested on: NCI/ADR-RES ovarian
OVCAR-3 ovarian = tested on: OVCAR-3 ovarian
T-47D breast = tested on: T-47D breast
DU-145 prostate = tested on: DU-145 prostate
M14 melanoma = tested on: M14 melanoma
SNB-19 CNS = tested on: SNB-19 CNS
UO-31 renal = tested on: UO-31 renal
UACC-257 melanoma = tested on: UACC-257 melanoma
MDA-N = tested on: MDA-N
BT-549 breast = tested on: BT-549 breast
SK-MEL-5 melanoma = tested on: SK-MEL-5 melanoma

CC1CCCCN1CC(=O)c1ccc2c(c1)Sc1ccccc1O2 (stereo not drawn)
TGI (SW-620 colon): 42.4 µM
TGI (NCI-H460 lung): 29.7 µM
TGI (HOP-92 NSCLC): 30.5 µM
TGI (A549 NSCLC): 30.7 µM
TGI (HOP-62 NSCLC): 30.7 µM
TGI (RXF 393 renal): 31.1 µM
TGI (NCI-H23 lung): 30.3 µM
TGI (ACHN renal): 28.8 µM
TGI (LOX IMVI melanoma): 38.7 µM
TGI (EKVX NSCLC): 28.7 µM
TGI (COLO 205 colon): > 100 µM
TGI (OVCAR-4 ovarian): 28.6 µM
TGI (CAKI-1 renal): 37.5 µM
TGI (SK-OV-3 ovarian): 31.6 µM
TGI (KM12 colon): 30.3 µM
TGI (786-0 renal): 31.9 µM
TGI (SR leukemia): 47.8 µM
TGI (A498 renal): 38.6 µM
TGI (MOLT-4 leukemia): > 100 µM
TGI (CCRF-CEM leukemia): 44.4 µM
TGI (U251 CNS): 31.9 µM
TGI (NCI-H226 lung): 26.4 µM
TGI (OVCAR-5 ovarian): 34.5 µM
TGI (HL-60(TB) leukemia): 47 µM
TGI (OVCAR-8 ovarian): 30.8 µM
TGI (PC-3 prostate): 26.1 µM
TGI (TK-10 renal): 42.5 µM
TGI (SF-268 CNS): 34.2 µM
TGI (HCT-15 colon): 45.2 µM
TGI (SN12C renal): 37.9 µM
TGI (MDA-MB-231 breast): 54.6 µM
TGI (SNB-75 CNS): 22.9 µM
TGI (HCT-116 colon): 30.7 µM
TGI (MCF7 breast): 33.6 µM
TGI (RPMI-8226 leukemia): > 100 µM
TGI (IGROV1 ovarian): 19.9 µM
TGI (HCC-2998 colon): 41.3 µM
TGI (SF-295 CNS): 33 µM
TGI (HT29 colon): 22.7 µM
TGI (SF-539 CNS): 34 µM
TGI (SK-MEL-28 melanoma): 33.1 µM
TGI (K-562 leukemia): > 100 µM
TGI (MDA-MB-435): 29.8 µM
TGI (MALME-3M melanoma): 26.8 µM
TGI (SK-MEL-2 melanoma): 32.4 µM
TGI (HS 578T breast): 25.7 µM
TGI (UACC-62 melanoma): 30.1 µM
TGI (NCI/ADR-RES ovarian): 35.5 µM
TGI (OVCAR-3 ovarian): 27.8 µM
TGI (T-47D breast): 48 µM
TGI (DU-145 prostate): 67.8 µM
TGI (M14 melanoma): 38.3 µM
TGI (SNB-19 CNS): 36 µM
TGI (UO-31 renal): 25.7 µM
TGI (UACC-257 melanoma): 39 µM
TGI (MDA-N): 32.2 µM

COC(=O)C1(C(=O)OC)N=C(C)OC1c1ccccn1 (stereo not drawn)
TGI (SW-620 colon): > 100 µM
TGI (NCI-H460 lung): > 100 µM
TGI (HOP-92 NSCLC): > 100 µM
TGI (A549 NSCLC): > 100 µM
TGI (HOP-62 NSCLC): > 100 µM
TGI (RXF 393 renal): > 100 µM
TGI (NCI-H23 lung): > 100 µM
TGI (ACHN renal): > 100 µM
TGI (LOX IMVI melanoma): > 100 µM
TGI (EKVX NSCLC): > 100 µM
TGI (COLO 205 colon): > 100 µM
TGI (OVCAR-4 ovarian): > 100 µM
TGI (CAKI-1 renal): > 100 µM
TGI (SK-OV-3 ovarian): > 100 µM
TGI (KM12 colon): > 100 µM
TGI (786-0 renal): > 100 µM
TGI (SR leukemia): > 100 µM
TGI (A498 renal): > 100 µM
TGI (MOLT-4 leukemia): > 100 µM
TGI (CCRF-CEM leukemia): > 100 µM
TGI (U251 CNS): > 100 µM
TGI (NCI-H226 lung): > 100 µM
TGI (OVCAR-5 ovarian): > 100 µM
TGI (HL-60(TB) leukemia): > 100 µM
TGI (OVCAR-8 ovarian): > 100 µM
TGI (PC-3 prostate): > 100 µM
TGI (TK-10 renal): > 100 µM
TGI (BT-549 breast): > 100 µM
TGI (HCT-15 colon): > 100 µM
TGI (SN12C renal): > 100 µM
TGI (SNB-75 CNS): > 100 µM
TGI (HCT-116 colon): > 100 µM
TGI (MCF7 breast): > 100 µM
TGI (RPMI-8226 leukemia): > 100 µM
TGI (SK-MEL-5 melanoma): > 100 µM
TGI (IGROV1 ovarian): > 100 µM
TGI (HCC-2998 colon): > 100 µM
TGI (SF-295 CNS): > 100 µM
TGI (SK-MEL-28 melanoma): > 100 µM
TGI (K-562 leukemia): > 100 µM
TGI (MDA-MB-435): > 100 µM
TGI (SK-MEL-2 melanoma): > 100 µM
TGI (UACC-62 melanoma): > 100 µM
TGI (NCI/ADR-RES ovarian): > 100 µM
TGI (OVCAR-3 ovarian): > 100 µM
TGI (T-47D breast): > 100 µM
TGI (DU-145 prostate): > 100 µM
TGI (M14 melanoma): > 100 µM
TGI (SNB-19 CNS): > 100 µM
TGI (UO-31 renal): > 100 µM
TGI (UACC-257 melanoma): > 100 µM
TGI (MDA-N): > 100 µM
